Structures are written as SMILES. Counter-ions that a name gives are not always drawn.

In one assay the test system is leukotriene biosynthesis. Kind of assay: In vivo leukotriene inhibition, Ionophore A23187-Induced Rat Pleural Inflammation Model. The conditions noted are these: 3.O mg/kg; male rats; dosed in 0.2% methocel one hour prior to intrapleural A23187 (20 μg); lavage after thirty minutes. The protocol:
Inhibition of leukotriene biosynthesis in vivo was evaluated using the Ionophore A23187-Induced Rat Pleural Inflammation Model. Pleural inflammation was induced in male rats following the method of Rao, et al. (Rao, T. S., Currie, J. L., Shaffer, A. F., Isakson, P. C., Evaluation of 5-lipoxygenase Inhibitors, Zileuton, A-78773 and ICI D-2138 in an Ionophore (A-23187) Induced Pleural Inflammation Model in the Rat, Life Sciences, 53, 147 (1993)). Rats were dosed with experimental compounds in 0.2% methocel one hour prior to the intrapleural injection of the calcium ionophore, A23187. The rats where lightly anesthetized with Pentrane (Abbott Laboratories) and injected intrapleurally with 0.5 ml of 2% ethanol in injectable saline (Abbott Laboratories) containing 20 μg of A23187 (Cal BioChem-Novabiochem). Thirty minutes later the animals were euthanised and the pleural cavities lavaged with ice cold saline (Abbott Laboratories). The lavage fluid was then added to ice cold methanol (final methanol concentration 30%) to lyse cells and precipitate protein. Eicosanoids were determined by enzyme immunoassay by standard methods.
In the case of `O=C(O)CON=CC=C(c1ccc(OCc2ccc3ccccc3n2)cc1)c1ccc(OCc2ccc3ccccc3n2)cc1` [Example 12], the “% Inhibition (In Vivo Leukotriene Inhibition in Rat Pleural Inflammation)” value is listed as 60%.

For a further assay, the system named is 5-Lipoxygenase. The assay can be described thus: Inhibition of calcium ionophore-induced LTB4 formation in human polymorphonuclear leukocytes (PMNL). Format: cell-based. The conditions noted are these: 15 min preincubation, calcium ionophore 8.3 μM, 10 min at 37° C., LTB4 by enzyme-linked immunoassay or HPLC, read-out: IC50 (In Vitro Inhibitory Potencies Against 5-Lipoxygenase From Stimulated LTB4 Formation in Human Polymorphonuclear Leukocytes). On the procedure: Inhibition of leukotriene biosynthesis was evaluated in vitro using an assay involving calcium ionophore-induced LTB4 expressed in human polymorphornuclear leukocytes (PMNL). Human PMNL isolated from heparinized (20 USP units/mL) venous blood (25 mL) obtained from healthy volunteers was layered over an equal volume of Ficoll-Hypaque Mono-Poly Resolving Medium (ICN Flow, Costa Mesa, CA) and centrifugated at 400×g for 40 minutes at 20° C. The PMNL was collected, erythrocytes lysed and washed 2× and suspended at 1.0×10^7 cells/mL in Earle's balanced salt solution with 17 mM Earle's HEPES. Aliquots of the cell suspension were preincubated with test compounds dissolved in DMSO (final concentration <2%) for 15 minutes and stimulated with calcium ionophore (final concentration 8.3 μM) for 10 min. at 37° C. Incubations were stopped with the addition of two volumes of ice-cold methanol followed by centrifuging the cell suspensions at 4° C. for 10 minutes at 450×g. The amount of LTB4 in the methanol extract was analyzed by enzyme-linked immunoassay or by HPLC analysis.
Regarding `O=C(O)CON=C(c1ccc(OCc2ccc3ccccc3n2)cc1)c1ccc(OCc2ccc3ccccc3n2)cc1` [Example 1, bis(4-(2-quinolylmethoxy)phenyl)methyloximinoacetic acid], the IC50 is 0.032 µM. On the same count and under the same terms, then `ON=C(c1ccc(OCc2ccc3ccccc3n2)cc1)c1ccc(OCc2ccc3ccccc3n2)cc1` [Example 2, bis(4-(2-quinolylmethoxy)phenyl) ketoxime], with 0.04 µM; and `O=C(O)CON=C(c1ccc(OCc2ccc3ccc(Cl)cc3n2)cc1)c1ccc(OCc2ccc3ccc(Cl)cc3n2)cc1` [Example 6, bis(4-(7-chloro-2-quinolylmethoxy)phenyl)methyloximinoaceticacid], with 0.22 µM; and `O=C(O)CON=C(c1ccc(OCc2nc3ccccc3s2)cc1)c1ccc(OCc2nc3ccccc3s2)cc1` [Example 9, bis(4-(2-benzothiazoylmethoxy)-phenyl)methyloximinoacetic acid sodium salt], with 0.04 µM. On the same count and under the same terms, the same measure for `O=C(O)C=C(c1ccc(OCc2ccc3ccccc3n2)cc1)c1ccc(OCc2ccc3ccccc3n2)cc1` [Example 11]: 0.05 µM; for `O=C(O)CON=CC=C(c1ccc(OCc2ccc3ccccc3n2)cc1)c1ccc(OCc2ccc3ccccc3n2)cc1` [Example 12]: 0.026 µM.

For the origin of these results see patent US5714488A, “Bis-heteroarylylmethoxyphenyl ketone derivatives as inhibitors of leukotriene biosynthesis” (Abbott Laboratories, priority 1996, dated 1998).
